In ChEMBL document CHEMBL1201862, “PubChem BioAssay data set” (2004):
Active and inactive are the calls of the source.

Legend:
Cytochrome P450 3A4 = Cytochrome P450 3A4 (Homo sapiens, UniProt P08684); conditions: Potency;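 note: confirmatory qHTS run detecting inhibitors and substrates of CYP3A4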
HEK293 = assay: Fluorescence-based counterscreen for potentiators or agonists of NPY-Y2: cell-based high-throughput dose response assay to identify inhibitors of cyclic nucleotide gated ion channel (CNGC) activity. In this assay, the parental HEK293 cell line transfected with a cyclic-nucleotide gated ion channel (CNGC)-based cAMP sensor is used to measure inhibition of isoproterenol-induced CNGC activity by test compound.; assay type: functional; conditions: Homo sapiens;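 note: stimulus is 1 µM isoproterenol at EC100 plus PDE inhibitor Ro 20-1724 at 25 µM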
[1] = molecular target: T1, Neuropeptide Y receptor type 2 (Homo sapiens, UniProt P49146); assay: Fluorescence-based cell-based high-throughput dose response assay for agonists of NPY-Y2. [Related pubchem assays: 1703 (Screening assay (CNGC inhibitors).), 1359 (Screening assay (NPY-Y2 potentiators or agonists).), 1304 (Screening assay (NPY-Y1 potentiators or agonists).), 1710 (Screening assay (NPY-Y2 agonists).), 1791 (Summary AID.)]; assay type: functional
T1 sequence (P49146 whole entry): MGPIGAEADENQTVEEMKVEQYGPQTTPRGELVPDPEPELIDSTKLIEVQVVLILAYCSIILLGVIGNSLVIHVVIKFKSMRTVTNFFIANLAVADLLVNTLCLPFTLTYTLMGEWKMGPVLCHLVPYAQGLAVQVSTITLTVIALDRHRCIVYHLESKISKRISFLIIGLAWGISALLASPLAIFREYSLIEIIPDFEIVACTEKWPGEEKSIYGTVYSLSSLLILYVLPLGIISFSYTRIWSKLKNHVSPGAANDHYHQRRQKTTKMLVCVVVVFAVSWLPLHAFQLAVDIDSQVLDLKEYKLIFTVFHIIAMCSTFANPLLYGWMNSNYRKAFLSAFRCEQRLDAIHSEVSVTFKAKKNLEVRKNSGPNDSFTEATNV

[2] = molecular target: T2, Neuropeptide Y receptor type 1 (Homo sapiens, UniProt P25929); assay: Fluorescence-based counterscreen for agonists of NPY-Y2: cell-based high-throughput dose response assay for agonists of NPY-Y1.; assay type: functional
T2 sequence (P25929 whole entry): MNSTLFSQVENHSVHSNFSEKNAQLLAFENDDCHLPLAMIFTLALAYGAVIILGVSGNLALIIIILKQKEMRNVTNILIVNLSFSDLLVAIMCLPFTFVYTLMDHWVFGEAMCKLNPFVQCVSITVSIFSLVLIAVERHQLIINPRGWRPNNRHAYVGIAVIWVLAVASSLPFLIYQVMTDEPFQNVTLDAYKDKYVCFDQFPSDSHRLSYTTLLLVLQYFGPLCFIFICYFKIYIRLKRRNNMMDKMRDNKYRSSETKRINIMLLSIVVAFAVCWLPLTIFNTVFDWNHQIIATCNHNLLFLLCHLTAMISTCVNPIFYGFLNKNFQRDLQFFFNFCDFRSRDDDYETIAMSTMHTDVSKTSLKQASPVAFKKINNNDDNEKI

[3] = molecular target: T3, Eukaryotic translation initiation factor 2-alpha kinase 3 (Homo sapiens, UniProt Q9NZJ5); assay: Dose response cell-based high-throughput screening assay to measure PERK inhibition. [Related pubchem assays: 1416 ]; assay type: functional
T3 sequence (Q9NZJ5 whole entry): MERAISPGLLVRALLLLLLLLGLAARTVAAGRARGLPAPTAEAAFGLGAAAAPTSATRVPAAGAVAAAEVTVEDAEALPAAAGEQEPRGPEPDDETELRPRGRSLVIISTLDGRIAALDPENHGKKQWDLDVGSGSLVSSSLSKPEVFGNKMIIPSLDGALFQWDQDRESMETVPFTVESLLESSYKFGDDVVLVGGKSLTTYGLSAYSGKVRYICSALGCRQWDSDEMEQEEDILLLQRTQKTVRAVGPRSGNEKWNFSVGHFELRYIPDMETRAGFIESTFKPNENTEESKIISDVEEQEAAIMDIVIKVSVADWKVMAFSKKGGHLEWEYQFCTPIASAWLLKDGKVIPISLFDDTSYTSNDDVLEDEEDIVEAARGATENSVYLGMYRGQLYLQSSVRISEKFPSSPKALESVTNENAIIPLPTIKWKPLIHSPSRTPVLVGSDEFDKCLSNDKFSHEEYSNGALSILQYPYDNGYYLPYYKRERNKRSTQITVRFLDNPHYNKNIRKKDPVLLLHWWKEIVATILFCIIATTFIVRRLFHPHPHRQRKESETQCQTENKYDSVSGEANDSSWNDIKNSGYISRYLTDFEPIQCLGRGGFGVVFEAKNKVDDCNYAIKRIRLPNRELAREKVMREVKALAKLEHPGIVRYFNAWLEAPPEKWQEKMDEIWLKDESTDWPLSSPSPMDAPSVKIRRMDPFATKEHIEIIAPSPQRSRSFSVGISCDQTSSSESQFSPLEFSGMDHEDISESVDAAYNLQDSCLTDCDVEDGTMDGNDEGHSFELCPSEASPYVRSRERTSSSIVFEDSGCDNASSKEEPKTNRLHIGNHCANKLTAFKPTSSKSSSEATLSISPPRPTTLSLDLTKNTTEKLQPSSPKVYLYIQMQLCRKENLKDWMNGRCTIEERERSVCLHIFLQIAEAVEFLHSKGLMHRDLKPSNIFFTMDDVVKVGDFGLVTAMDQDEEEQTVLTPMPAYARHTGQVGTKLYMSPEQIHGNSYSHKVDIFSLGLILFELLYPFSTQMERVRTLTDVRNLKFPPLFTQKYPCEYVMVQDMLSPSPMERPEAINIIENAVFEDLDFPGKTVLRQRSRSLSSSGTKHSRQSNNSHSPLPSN

[4] = molecular target: T3, Eukaryotic translation initiation factor 2-alpha kinase 3; assay: Counterscreen assay for PERK inhibitors: Dose response cell-based high throughput screening assay to measure inhibition of PERK at 6 hours. [Related pubchem assays: 1522, 1416 ]; assay type: functional
[5] = molecular target: Acyl-homoserine lactone acylase PvdQ (Pseudomonas aeruginosa (strain LESB58), UniProt Q9I194); assay: P. aeruginosa PvdQ acylase inhibitors, dose response, biochemical, fluorescence, plate reader and imaging, cherry-picks (AID 493231)
Sequence of Acyl-homoserine lactone acylase PvdQ (Q9I194 24-193 limits assumed): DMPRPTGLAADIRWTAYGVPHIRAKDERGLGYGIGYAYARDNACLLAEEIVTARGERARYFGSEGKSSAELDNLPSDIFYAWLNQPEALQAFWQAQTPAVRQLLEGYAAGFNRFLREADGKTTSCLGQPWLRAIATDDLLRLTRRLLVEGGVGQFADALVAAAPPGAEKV
Sequence of Acyl-homoserine lactone acylase PvdQ (Q9I194 217-762 limits assumed): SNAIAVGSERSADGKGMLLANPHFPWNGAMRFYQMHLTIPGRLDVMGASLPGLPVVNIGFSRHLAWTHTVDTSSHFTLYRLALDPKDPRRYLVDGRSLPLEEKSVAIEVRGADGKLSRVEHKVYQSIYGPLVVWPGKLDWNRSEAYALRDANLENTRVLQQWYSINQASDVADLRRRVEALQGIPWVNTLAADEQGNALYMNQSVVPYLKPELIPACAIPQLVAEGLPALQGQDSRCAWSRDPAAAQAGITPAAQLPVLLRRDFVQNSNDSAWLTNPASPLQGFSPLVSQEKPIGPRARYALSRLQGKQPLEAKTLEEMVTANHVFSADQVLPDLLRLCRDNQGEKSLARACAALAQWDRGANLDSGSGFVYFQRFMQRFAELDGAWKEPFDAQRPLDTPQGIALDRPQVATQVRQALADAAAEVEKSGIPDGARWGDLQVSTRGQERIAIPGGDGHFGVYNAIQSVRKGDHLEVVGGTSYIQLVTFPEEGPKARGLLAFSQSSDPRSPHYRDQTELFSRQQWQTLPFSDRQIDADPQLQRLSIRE

[6] = molecular target: Lysosomal acid glucosylceramidase (Homo sapiens, UniProt P04062); assay: Dose response cell-based high throughput screening assay to identify enhancers of beta-glucosidase activity. [Related pubchem assays: 784 ]; assay type: functional
Sequence of Lysosomal acid glucosylceramidase (P04062 whole entry): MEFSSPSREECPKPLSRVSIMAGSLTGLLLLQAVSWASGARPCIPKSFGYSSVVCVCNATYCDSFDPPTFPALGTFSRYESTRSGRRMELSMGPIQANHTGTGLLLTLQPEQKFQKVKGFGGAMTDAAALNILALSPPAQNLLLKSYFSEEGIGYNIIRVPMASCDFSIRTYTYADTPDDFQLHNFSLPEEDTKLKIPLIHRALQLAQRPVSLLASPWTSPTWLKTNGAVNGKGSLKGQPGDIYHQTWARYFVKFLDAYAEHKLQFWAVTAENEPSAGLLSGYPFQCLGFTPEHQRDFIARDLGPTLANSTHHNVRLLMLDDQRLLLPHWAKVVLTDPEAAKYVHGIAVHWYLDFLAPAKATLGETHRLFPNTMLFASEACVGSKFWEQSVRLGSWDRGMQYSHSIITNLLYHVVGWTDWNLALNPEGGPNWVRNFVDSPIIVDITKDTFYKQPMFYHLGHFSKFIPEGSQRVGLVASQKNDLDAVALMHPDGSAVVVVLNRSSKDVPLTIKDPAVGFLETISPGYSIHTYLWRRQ

cells = assay type: functional
Bcl-2-like protein 10 = Bcl-2-like protein 10 (Homo sapiens, UniProt Q9HD36); assay: displacers of TR3 peptide from Bcl-B, primary screen, selectivity assay for Bfl-1 inhibitor project, biochemical, fluorescence polarization, FITC-TR3 peptide (AID 748);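 note: fluorescence polarization from a fluorescein-labelled TR3 peptide binding purified Bcl-B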
Sequence of Bcl-2-like protein 10 (Q9HD36 whole entry): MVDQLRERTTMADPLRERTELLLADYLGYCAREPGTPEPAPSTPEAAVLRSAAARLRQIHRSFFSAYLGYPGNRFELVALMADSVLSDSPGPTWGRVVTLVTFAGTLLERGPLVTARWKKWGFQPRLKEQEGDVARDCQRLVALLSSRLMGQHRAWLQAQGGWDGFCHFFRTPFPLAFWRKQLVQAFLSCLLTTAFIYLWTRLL

[7] = molecular target: Melanin-concentrating hormone receptor 1 (Homo sapiens, UniProt Q99705); assay: Late-stage fluorescence-based counterscreen for antagonists of the G-protein coupled receptor 7 (GPR7): cell-based dose response assay to identify antagonists of the melanin-concentrating hormone receptor 1 (MCHR1). [Related pubchem assays (depositor defined):AID1861, AID1880, AID1952, AID2148, AID2251, AID2257, AID485339]; assay type: functional;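 note: stimulated with 30 nM MCH peptide agonist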
Sequence of Melanin-concentrating hormone receptor 1 (Q99705 whole entry): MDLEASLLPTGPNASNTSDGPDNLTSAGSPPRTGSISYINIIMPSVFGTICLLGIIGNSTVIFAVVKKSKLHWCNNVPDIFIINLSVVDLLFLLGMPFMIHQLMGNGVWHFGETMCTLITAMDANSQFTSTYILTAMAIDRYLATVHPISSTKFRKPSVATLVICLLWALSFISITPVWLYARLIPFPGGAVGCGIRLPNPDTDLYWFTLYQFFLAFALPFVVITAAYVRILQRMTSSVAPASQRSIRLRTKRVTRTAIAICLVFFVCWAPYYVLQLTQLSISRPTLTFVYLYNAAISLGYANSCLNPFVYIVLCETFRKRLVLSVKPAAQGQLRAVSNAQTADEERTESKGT

Sequence of Cytochrome P450 3A4 (P08684 whole entry): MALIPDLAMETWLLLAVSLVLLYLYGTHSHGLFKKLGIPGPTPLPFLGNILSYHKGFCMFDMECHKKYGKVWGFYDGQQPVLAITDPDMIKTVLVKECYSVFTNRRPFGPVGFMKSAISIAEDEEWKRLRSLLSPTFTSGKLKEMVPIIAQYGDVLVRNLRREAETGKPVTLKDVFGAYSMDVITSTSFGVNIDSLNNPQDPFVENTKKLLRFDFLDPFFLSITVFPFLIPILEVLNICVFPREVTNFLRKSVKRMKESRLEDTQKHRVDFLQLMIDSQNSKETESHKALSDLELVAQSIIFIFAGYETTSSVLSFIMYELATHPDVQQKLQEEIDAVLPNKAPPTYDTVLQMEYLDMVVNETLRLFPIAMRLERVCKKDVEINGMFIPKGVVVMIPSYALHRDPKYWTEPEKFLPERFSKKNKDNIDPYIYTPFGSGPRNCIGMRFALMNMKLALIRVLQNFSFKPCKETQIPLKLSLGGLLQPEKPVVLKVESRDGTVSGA

Structure (SMILES): CCC(C(=O)O)C1CCC(C)C(C(C)C(O)C(C)C(=O)C(CC)C2OC3(C=CC(O)[C@@]4(CC[C@](C)(C5CC[C@@](O)(CC)C(C)O5)O4)O3)C(C)CC2C)O1 (stereo partly drawn)
- AC50 (Cytochrome P450 3A4): 39.8 µM (inconclusive)

Structure (SMILES): CN(Cc1ccccc1)C(=O)CCNC(=O)Cn1cnc2ccccc2c1=O
- EC50 (HEK293): > 35.4 µM (not active)
- EC50 [1]: > 35.4 µM (not active)
- EC50 [2]: > 35.4 µM (not active)

Structure (SMILES): Cc1cnc(O)c([N+](=O)[O-])c1
- EC50 [3]: > 55.7 µM (not active)
- EC50 [4]: > 55.7 µM (not active)

Structure (SMILES): O=C(OCc1nc2ccccc2s1)c1ccco1
- AC50 [5]: 30.3 µM (active)

Structure (SMILES): Cc1ccccc1OCC(O)CN1CCC(C)CC1 (stereo not drawn)
- EC50 (HEK293): 4.67 µM (active)
- EC50 [1]: 33.3 µM (not active)
- EC50 [2]: 21.8 µM (not active)

Structure (SMILES): CCOC(=O)c1c(C)n(C)c2ccc(OC(C)C(=O)OC)cc12 (stereo not drawn)
- EC50 [6]: > 10 µM (not active)
- IC50 (cells): 20.9 µM (active)

Structure (SMILES): COC(=O)[C@@H]1C[C@@]2(O)[C@H](O)[C@H](O)[C@H](O)C[C@H]2N1Cc1cc(OC)cc(OC)c1
- AC50 (Cytochrome P450 3A4): 15.8 µM (inconclusive)

Structure (SMILES): Cc1csc2nc(CNS(=O)(=O)N(C)C)cn12
- IC50 (Bcl-2-like protein 10): > 100 µM (inactive)

Structure (SMILES): COCc1nnc(NC(=O)c2ccc(S(=O)(=O)N(C)C3CCCCC3)cc2)o1
- EC50 [6]: > 10 µM (not active)

Structure (SMILES): O=C(NC1CCCC1)c1cccc(Cl)c1
- AC50 [5]: 3.13 µM (active)

Structure (SMILES): COc1ccc(Oc2c(Cl)cnn(-c3ccc(C)cc3)c2=O)cc1OC
- IC50 [7]: 8.2 µM (active)

Structure (SMILES): COc1ccc(Oc2c(Cl)cnn(-c3cccc(C(C)C)c3)c2=O)cc1
- IC50 [7]: 1.7 µM (active)
